IC50 data for 19 molecules are collected here from patent EP3478687B1 (Daewoong Pharmaceutical Co., Ltd., priority 2016, dated 2018).

Each structure is given as a SMILES string.

The target in test [1] is T1, Recombinant purified human BTK (Homo sapiens, UniProt Q06187).
T1 construct: purchased Promega V9071
Kind of test: BTK kinase inhibitory activity, ADP-Glo kinase assay (Promega V9071). In kind it is biochemical. The conditions noted are these: ATP 10 uM, 8 ng BTK per reaction, 1 hour 30 °C, chemiluminescence. The procedure: (§1) JAK3 and BTK kinase inhibitory activities were measured for the compounds prepared in the above Examples through in vitro analysis on the ADP Glow (Glo) platform.
(§2) Specifically, the inhibitory activities of JAK3 and BTK kinase were measured using a JAK3 kinase assay kit (Promega, V9441) and a BTK kinase assay kit (Promega, V9071) which were purchased from Promega. Recombinant purified human JAK3 and BTK were diluted with 1 x kinase reaction buffer (JAK3: 40 mM Tris-Cl, pH 7.5, 20 mM MgCh, 0.1 mg/mL BSA and 50 uM DTT / BTK: 40 mM Tris-Cl, pH 7.5, 20 mM MgCl2, 0.1 mg/mL BSA, 2 mM MnCl2 and 50 uM DTT) and added to a 96 well plate (JAK3: final concentration of 4 ng per reaction/BTK: final concentration of 8 ng per reaction). The compounds were treated so as to be finally a 1% DMSO aqueous solution, and a substrate cocktail containing ATP (JAK3: final concentration of 5 uM / BTK: final concentration of 10 uM) and 0.2 µg/µL of Poly(Glu4, Tyr1) peptide (JAK3 and BTK final concentration) in the total 25 µL reactants was added to a 96-well plate to initiate enzymatic reaction. After incubation (30 °C) for 1 hour, equivalent volume (25 µL per reaction) of ADP Glo was added and incubated (30 °C) for 40 minutes at room temperature. Then, a kinase detection reagent (50 µL per reaction) was added and incubated (30 °C) for 30 minutes at room temperature. The kinase activity was measured by chemiluminescence according to the instructions of ADP Glo kinase assay kit, and the inhibitory activity of the compounds according to the present invention was calculated. For the analysis of the results of each compound, Microsoft Excel was used, and IC50 values were calculated by SigmaPlot software.

Test [2] addresses T2, Recombinant purified human JAK3 (Homo sapiens, UniProt P52333).
T2 construct: purchased Promega V9441
T2 sequence (P52333 1-1124): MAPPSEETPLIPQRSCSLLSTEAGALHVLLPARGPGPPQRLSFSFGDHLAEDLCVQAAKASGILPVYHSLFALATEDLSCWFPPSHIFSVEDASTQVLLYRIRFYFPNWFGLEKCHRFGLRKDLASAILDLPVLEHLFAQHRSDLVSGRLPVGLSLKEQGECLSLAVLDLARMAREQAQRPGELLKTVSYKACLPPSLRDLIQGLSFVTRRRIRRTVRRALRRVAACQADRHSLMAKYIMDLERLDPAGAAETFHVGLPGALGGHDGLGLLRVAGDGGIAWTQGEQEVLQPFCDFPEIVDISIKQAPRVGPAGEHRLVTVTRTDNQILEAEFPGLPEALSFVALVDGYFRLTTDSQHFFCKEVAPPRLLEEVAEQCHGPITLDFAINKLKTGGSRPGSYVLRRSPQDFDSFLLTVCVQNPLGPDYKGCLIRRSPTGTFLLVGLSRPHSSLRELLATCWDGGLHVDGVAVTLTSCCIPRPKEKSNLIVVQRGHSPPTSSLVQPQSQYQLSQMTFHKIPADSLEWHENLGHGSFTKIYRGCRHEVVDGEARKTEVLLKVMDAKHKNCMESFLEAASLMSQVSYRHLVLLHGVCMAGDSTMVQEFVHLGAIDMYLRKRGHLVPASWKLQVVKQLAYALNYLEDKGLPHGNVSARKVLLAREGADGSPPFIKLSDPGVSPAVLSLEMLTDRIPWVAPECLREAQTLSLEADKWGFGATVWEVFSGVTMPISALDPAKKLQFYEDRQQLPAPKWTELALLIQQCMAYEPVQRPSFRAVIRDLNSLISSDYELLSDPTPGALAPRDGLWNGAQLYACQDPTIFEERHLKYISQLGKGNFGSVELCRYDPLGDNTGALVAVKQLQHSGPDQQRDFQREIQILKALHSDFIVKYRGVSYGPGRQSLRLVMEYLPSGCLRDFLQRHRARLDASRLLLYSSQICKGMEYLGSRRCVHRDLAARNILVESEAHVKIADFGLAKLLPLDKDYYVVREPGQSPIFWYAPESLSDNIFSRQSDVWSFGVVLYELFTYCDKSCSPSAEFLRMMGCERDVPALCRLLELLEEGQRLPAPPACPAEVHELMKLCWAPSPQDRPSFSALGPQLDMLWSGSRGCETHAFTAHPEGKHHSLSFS
Briefly: JAK3 kinase inhibitory activity, ADP-Glo kinase assay (Promega V9441). The format is biochemical. The following applies: ATP 5 uM, 4 ng JAK3 per reaction, 1 hour 30 °C, chemiluminescence. The procedure: as §1, §2

T1 sequence (Q06187 whole entry): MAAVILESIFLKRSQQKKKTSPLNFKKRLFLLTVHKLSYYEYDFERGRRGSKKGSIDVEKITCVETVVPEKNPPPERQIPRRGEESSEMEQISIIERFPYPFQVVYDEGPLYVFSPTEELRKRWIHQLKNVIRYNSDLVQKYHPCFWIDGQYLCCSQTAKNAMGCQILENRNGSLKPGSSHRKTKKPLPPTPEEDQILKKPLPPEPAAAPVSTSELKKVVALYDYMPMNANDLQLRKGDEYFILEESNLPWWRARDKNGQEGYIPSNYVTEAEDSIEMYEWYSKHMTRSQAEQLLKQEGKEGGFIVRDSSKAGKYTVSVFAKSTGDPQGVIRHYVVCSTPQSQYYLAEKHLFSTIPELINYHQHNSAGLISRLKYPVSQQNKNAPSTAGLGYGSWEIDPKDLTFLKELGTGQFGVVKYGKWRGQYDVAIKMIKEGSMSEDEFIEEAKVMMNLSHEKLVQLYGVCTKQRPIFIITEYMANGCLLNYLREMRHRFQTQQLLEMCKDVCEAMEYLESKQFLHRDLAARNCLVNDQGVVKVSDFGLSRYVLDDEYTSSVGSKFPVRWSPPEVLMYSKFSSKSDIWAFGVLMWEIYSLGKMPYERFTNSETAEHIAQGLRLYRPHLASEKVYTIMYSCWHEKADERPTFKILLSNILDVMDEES

Consider `C=CC(=O)N1CCC[C@@H](Nc2nc(Nc3cnn(CC(F)F)c3)nc3[nH]ncc23)C1` [Example 31, (R)-1-(3-(6-(1-(2,2-difluoroethyl)-1H-pyrazol-4-ylamino)-1H-pyrazolo [3,4-d]pyrimidin-4-ylamino)piperidin-1-yl)prop-2-en-1-one], for which the results for the half-inhibitory concentration (IC50) in test [1] and in test [2] were 2.2 nM and 3.4 nM, respectively.
The corresponding values for `C=CC(=O)N1CCC[C@@H](Nc2nc(Nc3cnn(C)c3)nc3[nH]ncc23)C1` [Example 32, (R)-1-(3-(6-(1-methyl-1H-pyrazol-4-ylamino)-1H-pyrazolo[3,4-d]pyrimidin-4-ylamino)piperidin-1-yl)prop-2-en-1-one] are 2.8 nM and 10.7 nM.
For the molecule `C=CC(=O)N1CCC[C@@H](Nc2nc(Nc3cnn(CC)c3)nc3[nH]ncc23)C1` [Example 33, (R)-1-(3-(6-(1-ethyl-1H-pyrazol-4-ylamino)-1H-pyrazolo[3,4-d]pyrimidin-4-ylamino)piperidin-1-yl)prop-2-en-1-one], the IC50 in test [1] was determined as 1.6 nM; in test [2], 4.9 nM.
Take `C=CC(=O)N1CCC[C@@H](Nc2nc(Nc3cnn(C(F)F)c3)nc3[nH]ncc23)C1` [Example 34, (R)-1-(3-(6-(1-(difluoromethyl)-1H-pyrazol-4-ylamino)-1H-pyrazolo [3,4-d]pyrimidin-4-ylamino)piperidin-1-yl)prop-2-en-1-one]: the concentration for half-maximal inhibition (IC50) amounted to 2.1 nM in test [1] and 3.4 nM in test [2].
As for `C=CC(=O)N1CCC[C@@H](Nc2nc(Nc3cnn(CC(=O)NC)c3)nc3[nH]ncc23)C1` [Example 35, (R)-2-(4-(4-(1-acryloylpiperidin-3-ylamino)-1H-pyrazolo[3,4-d]pyrimidin-6-ylamino)-1H-pyrazol-1-yl)-N-methylacetamide], the IC50 worked out at 2.1 nM in test [1] and 5.2 nM in test [2].
Turning to `C=CC(=O)N1CCC[C@@H](Nc2nc(Nc3ccc(N4CCN(C)CC4)cc3)nc3[nH]cc(Cl)c23)C1` [Example 36, (R)-1-(3-(5-chloro-2-(4-(4-methylpiperazin-1-yl)phenylamino)-7H-pyrrolo [2,3-d]pyrimidin-4-ylamino)piperidin-1-yl)prop-2-en-1-one], the IC50 in test [1] is 16.5 nM; in test [2], 1.1 nM.
For the molecule `C=CC(=O)N1CCC[C@@H](Nc2nc(Nc3cnn(CC)c3)nc3[nH]cc(Cl)c23)C1` [Example 37, (R)-1-(3-(5-chloro-2-(1-ethyl-1H-pyrazol-4-ylamino)-7H-pyrrolo[2,3-d]pyrimidin-4-ylamino)piperidin-1-yl)prop-2-en-1-one], the values for the 50% inhibitory concentration (IC50) in test [1] and in test [2] were 2.5 nM and 0.1 nM, respectively.
Consider `C=CC(=O)N1CCC[C@@H](Nc2nc(Nc3cnn(C(F)F)c3)nc3[nH]cc(Cl)c23)C1` [Example 38, (R)-1-(3-(5-chloro-2-(1-(difluoromethyl)-1H-pyrazol-4-ylamino)-7H-pyrrolo[2,3-d]pyrimidin-4-ylamino)piperidin-1-yl)prop-2-en-1-one], for which the IC50 in test [1] was 4.3 nM; in test [2], 0.1 nM.
For the molecule `C=CC(=O)N1CCC[C@@H](Nc2nc(Nc3cnn(CC(F)F)c3)nc3[nH]cc(Cl)c23)C1` [Example 39, (R)-1-(3-(5-chloro-2-(1-(2,2-difluoroethyl)-1H-pyrazol-4-ylamino)-7H-pyrrolo[2,3-d]pyrimidin-4-ylamino)piperidin-1-yl)prop-2-en-1-one], the half-inhibitory concentration (IC50) in test [1] is 1.9 nM; in test [2], 0.1 nM.
The corresponding values for `C=CC(=O)N1CCC[C@@H](Nc2nc(Nc3cnn(CCN4CCOCC4)c3)nc3[nH]cc(Cl)c23)C1` [Example 40, (R)-1-(3-(5-chloro-2-(1-(2-morpholinoethyl)-1H-pyrazol-4-ylamino)-7H-pyrrolo [2,3-d]pyrimidin-4-ylamino)piperidin-1-yl)prop-2-en-1-one] are 1.8 nM and 0.2 nM.
Regarding `C=CC(=O)N1CCC[C@@H](Nc2nc(Nc3cnn(Cc4cccc(OC)c4)c3)nc3[nH]cc(Cl)c23)C1` [Example 41, (R)-1-(3-(5-chloro-2-(1-(3-methoaybenzyl)-1H-pyrazol-4-ylamino)-7H-pyrrolo[2,3-d]pyrimidin-4-ylamino)piperidin-1-yl)prop-2-en-1-one], the IC50 in test [1] worked out at 1.8 nM; in test [2], 0.5 nM.
The corresponding values for `C=CC(=O)N1CCC[C@@H](Nc2nc(Nc3ccc(N4CCN(C)CC4)cc3)nc3[nH]nc(Cl)c23)C1` [Example 42] are 3.2 nM and 5.1 nM.
Consider `C=CC(=O)N1CCC[C@@H](Nc2nc(Nc3ccc(-n4nc(C)cc4C)cc3)nc3[nH]nc(Cl)c23)C1` [Example 43], for which the values for the half-inhibitory concentration (IC50) in test [1] and in test [2] were 6.7 nM and 9.9 nM, respectively.
As to `C=CC(=O)N1CCC[C@@H](Nc2nc(Nc3cnn(CC(F)F)c3)nc3[nH]nc(Cl)c23)C1` [Example 44, (R)-1-(3-(3-chloro-6-(1-(2,2-difluoroethyl)-1H-pyrazol-4-ylamino)-1H-pyrazolo[3,4-d]pyrimidin-4-ylamino)piperidin-1-yl)prop-2-en-1-one], the IC50 was 2.5 nM in test [1] and 0.3 nM in test [2].
The corresponding values for `C=CC(=O)N1CCC[C@@H](Nc2nc(Nc3cnn(C)c3)nc3[nH]nc(Cl)c23)C1` [Example 45, (R)-1-(3-(3-chloro-6-(1-methyl-1H-pyrazol-4-ylamino)-1H-pyrazolo [3,4-d]pyrimidin-4-ylamino)piperidin-1-yl)prop-2-en-1-one] are 2.9 nM and 0.7 nM.
As for `C=CC(=O)N1CCC[C@@H](Nc2nc(Nc3cnn(CC(=O)NC)c3)nc3[nH]nc(Cl)c23)C1` [Example 47, (R)-2-(4-(4-(1-acryloylpiperidin-3-ylamino)-3-chloro-1H-pyrazolo[3,4-d]pyrimidin-6-ylamino)-1H-pyrazol-1-yl)-N-methylacetamide], the IC50 in test [1] amounted to 5.2 nM; in test [2] it was 1.1 nM.
Regarding `C=CC(=O)N1CCC[C@@H](Nc2nc(Nc3cnn(C4CCOCC4)c3)nc3[nH]nc(Cl)c23)C1` [Example 48, (R)-1-(3-(3-chloro-6-(1-(tetrahydro-2H-pyran-4-yl)-1H-pyrazol-4-ylamino)-1H-pyrazolo[3,4-d]pyrimidin-4-ylamino)piperidin-1-yl)prop-2-en-1-one], the results for the concentration for half-maximal inhibition (IC50) in test [1] and in test [2] were 0.9 nM and 0.4 nM, respectively.
Consider `C=CC(=O)N1CCC[C@@H](Nc2nc(Nc3cnn(C4CC4)c3)nc3[nH]nc(Cl)c23)C1` [Example 49, (R)-1-(3-(3-chloro-6-(1-cyclopropyl-lH-pyrazol-4-ylamino)-1H-pyrazolo [3,4-d]pyrimidin-4-ylamino)piperidin-1-yl)prop-2-en-1-one], for which the 50% inhibitory concentration (IC50) in test [1] was 0.9 nM; in test [2], 0.7 nM.
Consider `C=CC(=O)N1CCC[C@@H](Nc2nc(Nc3cnn(C(C)C)c3)nc3[nH]nc(Cl)c23)C1` [Example 50, (R)-1-(3-(3-chloro-6-(1-isopropyl-1H-pyrazol-4-ylamino)-1H-pyrazolo[3,4-d]pyrimidin-4-ylamino)piperidin-1-yl)prop-2-en-1-one], for which the concentration for half-maximal inhibition (IC50) came out at 1.8 nM in test [1] and 0.8 nM in test [2].
